Experiments:
[1] = target: T1, AR (Homo sapiens, UniProt P10275); assay: YAS (Yeast androgen screen) assay, agonist and antagonist mode
T1 sequence (P10275 1-920): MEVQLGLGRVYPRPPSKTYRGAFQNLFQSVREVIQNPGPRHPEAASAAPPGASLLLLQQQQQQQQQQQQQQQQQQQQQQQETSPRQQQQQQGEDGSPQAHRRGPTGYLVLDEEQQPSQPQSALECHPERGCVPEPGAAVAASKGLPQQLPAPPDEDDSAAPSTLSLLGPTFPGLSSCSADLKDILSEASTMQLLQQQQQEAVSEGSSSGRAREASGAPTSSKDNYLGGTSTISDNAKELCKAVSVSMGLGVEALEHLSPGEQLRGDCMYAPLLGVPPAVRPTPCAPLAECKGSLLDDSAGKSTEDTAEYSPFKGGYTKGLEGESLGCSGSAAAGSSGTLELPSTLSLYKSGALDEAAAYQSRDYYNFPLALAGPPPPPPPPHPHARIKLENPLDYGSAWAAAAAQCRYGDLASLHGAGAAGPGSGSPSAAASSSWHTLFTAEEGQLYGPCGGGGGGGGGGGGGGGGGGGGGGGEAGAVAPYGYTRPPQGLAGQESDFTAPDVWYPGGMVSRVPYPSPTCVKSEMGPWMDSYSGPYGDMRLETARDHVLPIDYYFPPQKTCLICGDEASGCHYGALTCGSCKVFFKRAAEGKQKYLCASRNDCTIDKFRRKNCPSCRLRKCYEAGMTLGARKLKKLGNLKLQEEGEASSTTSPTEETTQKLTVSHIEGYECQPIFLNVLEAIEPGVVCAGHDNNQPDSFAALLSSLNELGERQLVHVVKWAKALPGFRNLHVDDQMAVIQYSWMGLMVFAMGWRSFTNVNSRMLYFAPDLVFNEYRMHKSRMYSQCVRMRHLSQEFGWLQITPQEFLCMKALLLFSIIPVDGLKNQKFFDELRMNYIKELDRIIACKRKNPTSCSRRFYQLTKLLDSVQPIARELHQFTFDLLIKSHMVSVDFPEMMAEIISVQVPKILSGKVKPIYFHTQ
Method: (§1) The YES/YAS XL (Xtra Lyticase) assay kit from Xenometrix AG (Allschwil, Switzerland) was conducted according to the Supplier’s instructions.
(§2) In the YES assay, human ERα is integrated in the yeast (Saccharomyces cerevisiae) chromosome, and for the YAS assay human AR is integrated (Routledge and Sumpter 1996; Sohoni and Sumpter 1998). […] This enzyme then converts a yellow substrate to a purple metabolite, which can be measured colorimetrically.
(§3) Growing yeast cells stably transformed with either hERα (YES) or hAR (YAS) and a β-galactosidase reporter system were exposed to a range of concentrations of each test compound. […] The positive control chemicals for agonistic effects were 17-β estradiol for YES and 5α-dihydrotestosterone for YAS. […] A combination of a fixed concentration of positive control and a range of concentrations of each test chemical were tested. The cells were incubated with each treatment for 18 h at 31°C. The cells were lysed in the presence of the yellow β-galactosidase-substrate, chlorophenol red-β-D-galactopyranoside (CPRG). Yeast cell growth was assessed prior to addition of the lysis buffer by measuring the absorbance at 690 nm. The production of the red metabolite of CPRG was determined by measuring the absorbance at 570 nm. It was corrected for diffraction by cells and debris by a simultaneous measurement at 690 nm. The results were evaluated for estrogenic and androgenic agonistic and antagonistic activity, as well as for yeast growth inhibition or cytotoxicity.
(§4) An IR value ≥ IR10 in the YES or YAS agonist assay indicates an agonistic effect (IR10 is defined as the IR which is 10% of (IR max - IR solvent) above the IR solvent. An IR value ≤ IR50 in the YES or YAS antagonist assay indicates a possible antagonistic effect (IR50 is defined as 50% of (IR control - IR solvent), where the IR control is at the corresponding fixed concentration of agonist used: 3.3 × 10^-10 M 17-β estradiol and 3.3 × 10^-9 M 5α-dihydrotestosterone, respectively). […]

[2] = test system: AR; details: AR pathway model; ref Kleinstreuer et al (2017) 10.1021/acs.chemrestox.6b00347; cited from earlier work
[3] = target: T2, ERα (Homo sapiens, UniProt P03372); assay: (anti-)ERα CALUX receptor transactivation assay; assay type: cell-based; set-up: expressed in transfected cells; host or cells: CALUX cells (U2-OS is named only for the cytotoxicity CALUX)
T2 sequence (P03372 1-595): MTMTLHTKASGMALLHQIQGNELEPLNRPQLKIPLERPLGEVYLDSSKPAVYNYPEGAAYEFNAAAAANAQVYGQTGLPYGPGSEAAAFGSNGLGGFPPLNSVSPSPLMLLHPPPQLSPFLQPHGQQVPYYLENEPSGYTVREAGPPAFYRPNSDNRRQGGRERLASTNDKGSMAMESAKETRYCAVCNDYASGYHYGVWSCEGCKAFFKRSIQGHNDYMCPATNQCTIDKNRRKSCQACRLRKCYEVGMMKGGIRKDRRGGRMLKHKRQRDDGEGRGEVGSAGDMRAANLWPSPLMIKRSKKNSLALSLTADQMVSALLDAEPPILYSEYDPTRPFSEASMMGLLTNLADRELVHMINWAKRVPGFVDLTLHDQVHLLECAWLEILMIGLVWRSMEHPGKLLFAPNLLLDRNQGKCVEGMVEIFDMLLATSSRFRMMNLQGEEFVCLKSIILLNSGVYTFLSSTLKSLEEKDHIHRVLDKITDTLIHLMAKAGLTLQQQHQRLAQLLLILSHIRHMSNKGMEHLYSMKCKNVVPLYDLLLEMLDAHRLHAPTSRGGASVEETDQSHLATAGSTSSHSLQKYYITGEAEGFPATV
Method: The human CALUX® assays were used to measure the impact of test compounds on estrogen and androgen pathways. […] Chemicals can activate (or inactivate, in the case of an antagonistic activity) a ligand-specific pathway by binding to the receptor (ER, AR), after which the receptor-ligand complex binds to specific DNA REs […], resulting in increased (or decreased) cellular expression of a marker protein (e.g., luciferase).
Chemicals were dissolved and diluted in DMSO. […] The cytotoxicity of each test chemical was assessed using the U2-OS based cytotoxicity CALUX bioassay. Concentrations causing >20% reduction of luminescence were considered cytotoxic. […] Luciferase production was quantified by measuring luminescence following addition of luciferin. For antagonist assays, a fixed concentration of receptor agonist was co-incubated with a range of concentrations of the test chemical. […] For the AR assays, dihydrotestosterone was the positive control for agonistic effects and flutamide was the positive control for antagonist effects.
Each test chemical was tested in triplicates in two independent experiments.

[4] = target: T3, human recombinant CYP19A1 (Homo sapiens, UniProt P11511); assay: Recombinant enzyme aromatase activity inhibition assay; assay type: biochemical; details: follow-up dose–response assay
T3 sequence (P11511 1-503): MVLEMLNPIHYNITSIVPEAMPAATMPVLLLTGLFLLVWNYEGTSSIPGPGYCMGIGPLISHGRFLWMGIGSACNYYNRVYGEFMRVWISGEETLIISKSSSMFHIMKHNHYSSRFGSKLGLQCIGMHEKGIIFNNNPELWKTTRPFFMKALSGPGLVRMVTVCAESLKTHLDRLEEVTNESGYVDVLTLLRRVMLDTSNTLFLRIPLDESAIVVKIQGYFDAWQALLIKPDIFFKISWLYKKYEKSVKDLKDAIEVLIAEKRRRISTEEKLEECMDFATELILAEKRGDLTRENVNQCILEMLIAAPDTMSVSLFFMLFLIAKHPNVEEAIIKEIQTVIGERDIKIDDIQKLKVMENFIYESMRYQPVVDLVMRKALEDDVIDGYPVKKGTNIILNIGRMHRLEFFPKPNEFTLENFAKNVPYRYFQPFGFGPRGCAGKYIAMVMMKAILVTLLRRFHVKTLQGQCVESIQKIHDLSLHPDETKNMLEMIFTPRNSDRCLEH
Method: An aromatase inhibition assay was also included in the in vitro assay panel. This enzyme – otherwise known as CYP19A1 - is responsible for converting androgens into estrogens (Blakemore and Naftolin 2016; Bulun 2014); therefore, chemicals that inhibit aromatase activity can lead to reduced estrogen production, which can affect reproductive and developmental processes (Kragie 2002; Tiboni and Ponzano 2016).
The metabolite, estradiol, was measured by time-resolved fluorescence according to the method described previously (Ji et al. 2014). Enzyme inhibition was calculated as a % inhibition of control enzyme activity.

[5] = target: T2, ERα; assay: YES (Yeast oestrogen screen) assay, agonist and antagonist mode; details: YES agonist assay; duplicates in two independent experiments
Method: as §1, §2, §3, §4

In the case of `CC(C)(C)CC(C)(C)c1ccc(O)cc1` [4-TO, 4-tert-octylphenol], the “outcome in the YAS assay” value ([1]; agonist and antagonist) is listed as “negative”, the “toxicity to yeast (decrease in the yeast cell growth)” value ([1]; highest concentrations tested) is listed as “toxic at the highest concentrations tested” and the “ToxCast Pathway Model (AUC)” value [2] is listed as “AUC = 0.23 as agonist, then there is a significant interaction”.
In the case of `CCCCN(CCCC)c1ccc(C(=O)c2ccccc2C(=O)O)c(O)c1` [DBABA, 2-[4-(dibutylamino)-2-hydroxybenzoyl]benzoic acid], the “AR antagonism in the YAS assay” value ([1]; YAS antagonist assay) is reported as “inconclusive”.
In the case of `O=c1c(-c2ccc(O)cc2)coc2cc(O)ccc12` [Daidzein, daidzein], the “Lowest Effective Concentration (LEC), ER agonism” value [3] is listed as 0.1 µM, the aromatase inhibition outcome [4] is listed as “lack of binding” and the “ToxCast Pathway Model (AUC)” value [2] is listed as “AUC = 0, then there is no significant interaction”. The “ER agonism in the YES assay” value [5] was “positive”.
In the case of `C[C@]12CCC(=O)C[C@@H]1CC[C@@H]1[C@@H]2CC[C@@]2(C)[C@H]1CC[C@]2(C)O` [Mestanolone, mestanolone, reference compound], the “Lowest Effective Concentration (LEC), ER agonism” value [3] is reported as 0.028 µM, the aromatase inhibition outcome [4] is reported as “lack of binding” and the “ER agonism in the YES assay” value [5] is reported as “positive”.

Reference: paper PMC10761396, “Evaluation of new alternative methods for the identification of estrogenic, androgenic and steroidogenic effects: a comparative in vitro/in silico study” (Archives of Toxicology, 2023)
